{
  "source": "patent US8980874B2",
  "about": "“Method and composition for treating diabetic ketoacidosis” (Midwestern University, priority 2009, dated 2015)",
  "origin": "cited, not measured here",
  "key": {"[1]": {"tested_on": "BBB permeability", "settings": "repeated intracisternal administration of ET-1 in dogs and rats; cited from earlier work"}, "[2]": {"tested_on": "rat model of embolic stroke", "settings": "rat model of embolic stroke where rtPA was used; cited from earlier work"}},
  "data": [
    {"smiles": "CC1(C)CC[C@]2(C(=O)[O-])CC[C@]3(COC(=O)/C=C/c4cc([O-])ccc4NC(=O)/C=C/C(=O)O)C(=CC[C@@H]4[C@@]5(C)CCC(=O)C(C)(C)[C@@H]5CC[C@]43C)[C@@H]2C1.[Na+].[Na+]", "note": "[S-0139]", "values": [
      {"measurement": "effect on ET-1 induced increase in BBB permeability", "setting": "[1]", "value": "blocked"},
      {"measurement": "neuroprotection / rtPA evoked disruption of BBB", "setting": "[2]", "value": "provided neuroprotection by suppressing rtPA evoked disruption of BBB"}
    ]}
  ]
}
